Here are results for two compounds from patent publication EP0008186A1, “Cyclic diamides, a process for their preparation and their pharmaceutical compositions” (BEECHAM GROUP PLC, priority 1978, dated 1980).

Type in all cases: in vivo
Experiment [1] deals with anaesthetised, perfused rat stomach preparation. Briefly: Inhibition of pentagastrin-stimulated gastric acid secretion (Ghosh and Schild preparation). As to conditions: i.v. The protocol: The compounds were examined for their ability to inhibit pentagastrin-stimulated gastric acid secretion in the anaesthetised, perfused rat stomach preparation (Ghosh and Schild preparation). The compounds were administered intravenously.

The next experiment has as its system rat. Briefly: Anti-ulcer activity: inhibition of indomethacin induced gastric damage. As to conditions: gastric damage score 1-9; 50mg/kg orally 30 minutes prior to 15mg/kg indomethacin subcutaneously; sacrificed 4 hours later; vehicle 4.57 ± 0.69; p <0.01 (Mann Witney). The protocol: Anti-ulcer activity was assessed by the inhibition of indomethacin induced gastric damage in the rat according to the method of Eleghe (1974) Israeli J. Med. Sci. 10 1451. Rats were starvedovernight given 15mg/kg indomethacin subcutaneously and sacrificed 4 hours later. Stomachs were reflated with n. saline, cut along the greater curvature pinned out and scored for gastric damage by the following system: • Score 1 - 3 - according to degree of erythema and slight haemorrhage. • Score 4 - 6 - according to degree of mucosal erosion. • Score 7 - 9 - according to depth of gastric damage.
Groups of 7 rats were used for each treatment and the test compound or vehicle were administered 30 minutes prior to giving the indomethacin. Dose of test compound was 50mg/kg orally and control groups receiving vehicle only were set up simultaneously. Mean values for each treatment were obtained using the above scoring system and the Mann Witney test applied for significance of difference between the values obtained with the treatments.

The next experiment deals with conscious guinea pigs. Description: Herxheimer test: protection against histamine aerosol induced bronchoconstriction. As to conditions: administered by aerosol or by oral administration, mean of several experiments. The method, then:
• 1. The compounds were examined for their ability to inhibit 5-hydroxytryptamine or histamine induced bronchoconstriction in the anaesthetised, artifically respired guinea pig (Konzett-Rossler preparation). The compounds were administered intravenously. The results are shown in Table A. [formula] • 2. Compound 3 was also examined for its ability to protect conscious guinea pigs against bronchoconstriction induced by an histamine aerosol (Herxheimer test). In these experiments the compound was administered by aerosol or by oral administration. The results are the mean of several experiments. Compound 3 was active at 10 mg/kg.

Structures are written as SMILES.

In the case of `COC(=O)CCCCCCC1C(=O)N[C@@H](C)C(=O)N1CCC(C)(O)C1CCCCC1` (stereo partly shown) [Compound 9], the “inhibited gastric acid secretion at” value in experiment [1] amounted to 0.25 mg/kg.
With `CCCCC(C)C(C)(O)CCN1C(=O)CN(C)C(=O)C1CCCCCCC(=O)OC` (stereo not shown) [Compound 3], the “Test Mean Score ± S.E. of Mean” value with rat was 0.71 ± 0.42 (p <0.01). Besides, the “active at (protection against bronchoconstriction induced by an histamine aerosol)” value with conscious guinea pigs is recorded as 10 mg/kg. In addition, in experiment [1], the “inhibited gastric acid secretion at” value is listed as 0.2 mg/kg.
